The conditions of data set [1]: cited from earlier work.
For data set [2], the target named is central cholinergic receptors. Kind of data set: 3H-oxotremorine M binding, rat brain homogenates. The following applies: rat brain homogenate, pH 7.4, 40 min at 30 °C; read-out: Binding IC50, 3H-Oxo-M.
Protocol: Briefly, rat brains were homogenized in 100 vol (w/v) 10 mM Na,K-phosphate buffer (pH 7.4) and aliquots incubated with ^3 H-oxotremorine M (84.9 Ci/mmol, NEN) alone or in the presence of test compound in a total volume of 1.5 ml for 40 min. at 30° C. The reaction was stopped by adding 5 ml ice-cold buffer and filtered through Whatman GF/B filters soaked previously in 0.1% polyethylenimin (Sigma) for minimum 30 min. The filters were washed once with the same volume of buffer, transferred to scintillation vials and extracted in scintillation fluid (Pico-fluor 15, Packard) for at least two hours before counted in a liquid scintillation spectrometer (Beckman LS 1800). Non-specific binding was estimated at 10 μM atropine and all estimations made in triplicate. At least two displacement curves were made for each compound tested.
For data set [3] the following is noted: after peripheral administration; cited from earlier work.
The conditions of data set [4]: cited from earlier work. This is another data set of the same source.
Data set [5] addresses T1, central muscarinic M-1 receptors (Rattus norvegicus, UniProt P08482).
T1 sequence (P08482 1-460): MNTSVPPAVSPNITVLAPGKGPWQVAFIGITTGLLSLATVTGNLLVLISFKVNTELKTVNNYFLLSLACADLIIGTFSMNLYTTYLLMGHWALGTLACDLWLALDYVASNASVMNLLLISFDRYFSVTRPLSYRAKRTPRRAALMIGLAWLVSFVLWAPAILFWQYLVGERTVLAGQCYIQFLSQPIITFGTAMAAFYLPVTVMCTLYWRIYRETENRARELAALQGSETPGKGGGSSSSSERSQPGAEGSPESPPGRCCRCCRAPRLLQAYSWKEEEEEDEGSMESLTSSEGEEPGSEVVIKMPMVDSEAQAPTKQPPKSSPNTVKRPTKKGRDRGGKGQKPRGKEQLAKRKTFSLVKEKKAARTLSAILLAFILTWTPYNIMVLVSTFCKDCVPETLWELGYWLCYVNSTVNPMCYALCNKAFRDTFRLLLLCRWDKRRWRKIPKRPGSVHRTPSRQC
Nature of the data set: biochemical. The following applies: rat brain homogenate, 1.0 nM 3H-pirenzepine, 60 min at 25 °C; read-out: Binding IC50, 3H-Pirenzepine. Here is the method: ^3 H-pirenzepine binding was performed essentially as described by Watson et al., 1983, the conditions being very much the same as for ^3 H-oxotremorine binding, except that aliquots were incubated with 1.0 nM ^3 H-pirenzepine for 60 min. at 25° C. and that the reaction was stopped by direct filtration followed by 3 washes with 4 ml buffer.

Counter-ions that a name gives are not always drawn. Like-named read-outs stand apart in the source and are kept apart here.

On to `CC(=O)OCC[N+](C)(C)C` [AcCh, acetylcholine], for which, in data set [1] (in vivo), the “penetration of the blood-brain barrier” value is “do not penetrate the blood-brain barrier (BBB) easily”.
Take `COC(=O)C1=CCCN(C)C1` [Arecoline, methyl 1-methyl-1,2,5,6-tetrahydropyridine-3-carboxylate]: in data set [1] (after peripheral administration), the “penetration of the blood-brain barrier” value is given as “capable of penetrating the BBB after peripheral administration”. Moreover, in data set [2], the IC50 stood at 1.9 nM. The central effects result in data set [3] was “very weak and frequently negligible central effects”. Moreover, the “hydrolysis of the ester group in vivo” value in data set [4] is recorded as “very rapidly hydrolyzed in vivo”.
`CCOc1noc2c1CNCCC2` [Example 4, 3-Ethoxy-5,6,7,8-tetrahydro-4H-isoxazolo[4,5-c]azepine Hydrochloride]: the IC50 in data set [2] amounted to 0.49 nM; in data set [5], 11 nM.
Consider `COc1noc2c1CNCCC2` [Example 5, 3-Methoxy-5,6,7,8-tetrahydro-4H-isoxazolo[4,5-c]azepine Hydrochloride], for which the IC50 in data set [2] was 2.8 nM; in data set [5] it was 248 nM.
On the same counts, the results for `CC(C)Oc1noc2c1CNCCC2` [Example 6, 3-Isopropoxy-5,6,7,8-tetrahydro-4H-isoxazolo[4,5-c]azepine Hydrochloride] are 8.3 nM and 5 nM.
On the same counts, the results for `C#CCOc1noc2c1CNCCC2` [Example 9, 3-(2-Propynyloxy)-5,6,7,8-tetrahydro-4H-isoxazolo [4,5-c]azepine Hydrochloride] are 0.34 nM and 16 nM.
On the same counts, the results for `C#CCOc1noc2c1CNCCC2C` (centres unmarked) [Example 14, 8-Methyl-3-(2-propynyloxy)-5,6,7,8-tetrahydro-4H-isoxazolo 4,5-c azepine, Fumarate] are 0.93 nM and 16 nM.
Turning to `COc1noc2c1CNCC2` [O-Methyl-THPO, reference compound], the IC50 in data set [2] was determined as 62 nM; in data set [5], 8600 nM.

These data come from patent publication US4960769A, “5,6,7,8-tetrahydro-4H-isoxazolo[4,5-c]-azepine derivatives” (H. Lundbeck A/S, priority 1987, dated 1990).
